Reference: ChEMBL document CHEMBL1149520, “Cyclopentane-based human NK1 antagonists. Part 1: discovery and initial SAR” (Bioorg Med Chem Lett, 2006)
In brackets after ≈: the same amount, converted by molar mass.

Assays:
physchem = conditions: sodium acetate/acetic acid buffer, pH 5
Substance-P receptor = Substance-P receptor (Homo sapiens, UniProt P25103); assay: biochemical
[1] = Dissociation constant, pKa of the compound; assay type: physicochemical
[2] = Bioavailability in orally dosed rat; assay type: ADME, organism-based; conditions: in vivo, po
[3] = Bioavailability in orally dosed dog; assay type: ADME, organism-based, Canis lupus familiaris; conditions: in vivo, po
[4] = Solubility in potassium hydrogen phosphate buffer at pH 5; assay type: physicochemical
Cavia porcellus = species: Cavia porcellus; assay: animal or person; conditions: Plasma, po, read-out: Inhibition

Sequence of Substance-P receptor (P25103 whole entry): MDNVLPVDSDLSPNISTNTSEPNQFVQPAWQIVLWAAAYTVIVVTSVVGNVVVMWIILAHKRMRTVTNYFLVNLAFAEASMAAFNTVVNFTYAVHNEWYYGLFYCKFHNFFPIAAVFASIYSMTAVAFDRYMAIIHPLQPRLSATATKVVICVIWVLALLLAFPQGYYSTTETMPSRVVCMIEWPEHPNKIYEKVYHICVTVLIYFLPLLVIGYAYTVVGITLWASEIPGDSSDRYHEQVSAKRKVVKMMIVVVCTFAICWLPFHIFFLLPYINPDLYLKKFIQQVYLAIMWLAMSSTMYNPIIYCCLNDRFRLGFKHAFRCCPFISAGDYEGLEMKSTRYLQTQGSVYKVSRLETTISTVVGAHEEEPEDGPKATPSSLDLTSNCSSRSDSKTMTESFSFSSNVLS

| SMILES | IC50 (Substance-P receptor) [nM] | other results |
| --- | --- | --- |
| NC(=O)CN[C@H]1CC[C@H](OCc2cc(C(F)(F)F)cc(C(F)(F)F)c2)[C@@H]1c1ccccc1 (racemic) | 8.3 | solubility (physchem): 800 µg/mL (≈ 1740 µM) |
| O=C(N[C@H]1CC[C@H](OCc2cc(C(F)(F)F)cc(C(F)(F)F)c2)[C@@H]1c1ccccc1)OCc1ccccc1 (racemic) | 300 |  |
| CN(Cc1nnc[nH]1)[C@@H]1CC[C@H](OCc2cc(C(F)(F)F)cc(C(F)(F)F)c2)[C@H]1c1ccccc1 (racemic) | 1.1 |  |
| C[C@@H](O[C@H]1OCCN(Cc2n[nH]c(=O)[nH]2)[C@H]1c1ccc(F)cc1)c1cc(C(F)(F)F)cc(C(F)(F)F)c1 [APREPITANT] |  | pKa [1]: < 3.5; bioavailability [2]: 53%; bioavailability [3]: 40%; solubility [4]: < 0.5 µg/mL |
| NC(=O)CN[C@@H]1CC[C@H](OCc2cc(C(F)(F)F)cc(C(F)(F)F)c2)[C@H]1c1ccccc1 (relative stereo) | 0.95 |  |
| N[C@@H]1CC[C@H](OCc2cc(C(F)(F)F)cc(C(F)(F)F)c2)[C@H]1c1ccccc1 (relative stereo) | 2.3 |  |
| CN(C[C@@H]1CCC(=O)N1)[C@@H]1CC[C@H](OCc2cc(C(F)(F)F)cc(C(F)(F)F)c2)[C@H]1c1ccccc1 | 0.81 | solubility (physchem): 510 µg/mL (≈ 991 µM) |
| FC(F)(F)c1cc(CO[C@H]2CC[C@@H](CN3CCOCC3)[C@@H]2c2ccccc2)cc(C(F)(F)F)c1 (racemic) | 8.2 |  |
| CNC[C@@H]1CC[C@H](OCc2cc(C(F)(F)F)cc(C(F)(F)F)c2)[C@H]1c1ccccc1 (racemic) | 1.9 |  |
| O=C(N[C@@H]1CC[C@H](OCc2cc(C(F)(F)F)cc(C(F)(F)F)c2)[C@H]1c1ccccc1)OCc1ccccc1 (racemic) | 40 |  |
| O=C1CC[C@@H](CN[C@H]2CC[C@@H](OCc3cc(C(F)(F)F)cc(C(F)(F)F)c3)[C@@H]2c2ccccc2)N1 | 260 |  |
| CN(CC(N)=O)[C@@H]1CC[C@H](OCc2cc(C(F)(F)F)cc(C(F)(F)F)c2)[C@H]1c1ccccc1 (racemic) | 2.7 | pKa [1]: 5.8; solubility (physchem): 16 µg/mL (≈ 33.7 µM) |
| NC(=O)CNC[C@@H]1CC[C@H](OCc2cc(C(F)(F)F)cc(C(F)(F)F)c2)[C@H]1c1ccccc1 (racemic) | 1.9 | solubility (physchem): 590 µg/mL (≈ 1240 µM) |
| CN(C)C(=O)N[C@@H]1CC[C@H](OCc2cc(C(F)(F)F)cc(C(F)(F)F)c2)[C@H]1c1ccccc1 (racemic) | 5 |  |
| NC(=O)[C@@H]1CC[C@H](OCc2cc(C(F)(F)F)cc(C(F)(F)F)c2)[C@H]1c1ccccc1 (racemic) | 7.2 |  |
| CN(C)C(=O)N(C)[C@@H]1CC[C@H](OCc2cc(C(F)(F)F)cc(C(F)(F)F)c2)[C@H]1c1ccccc1 (racemic) | 16 |  |
| O=C(O)[C@@H]1CC[C@H](OCc2cc(C(F)(F)F)cc(C(F)(F)F)c2)[C@H]1c1ccccc1 (racemic) | 67 |  |
| CN(CC(N)=O)C[C@@H]1CC[C@H](OCc2cc(C(F)(F)F)cc(C(F)(F)F)c2)[C@H]1c1ccccc1 (racemic) | 1.9 | solubility (physchem): 300 µg/mL (≈ 614 µM) |
| CNC(=O)N[C@@H]1CC[C@H](OCc2cc(C(F)(F)F)cc(C(F)(F)F)c2)[C@H]1c1ccccc1 (racemic) | 2.7 |  |
| N[C@@H]1CC[C@H](OCc2cc(C(F)(F)F)cc(C(F)(F)F)c2)[C@H]1c1ccccc1 (racemic) | 5.7 |  |
| NC(=O)N[C@H]1CC[C@H](OCc2cc(C(F)(F)F)cc(C(F)(F)F)c2)[C@@H]1c1ccccc1 (racemic) | 9.8 |  |

| SMILES | IC50 (Substance-P receptor) [nM] | other results |
| --- | --- | --- |
| NC(=O)CN[C@H]1CC[C@@H](OCc2cc(C(F)(F)F)cc(C(F)(F)F)c2)[C@@H]1c1ccccc1 (relative stereo) | 45 |  |
| CN(Cc1n[nH]c(=O)[nH]1)C[C@H]1CC[C@H](OCc2cc(C(F)(F)F)cc(C(F)(F)F)c2)[C@@H]1c1ccccc1 (racemic) | 4.7 | solubility (physchem): 80 µg/mL (≈ 151 µM) |
| N[C@H]1CC[C@H](OCc2cc(C(F)(F)F)cc(C(F)(F)F)c2)[C@@H]1c1ccccc1 (racemic) | 7.9 |  |
| OC[C@@H]1CC[C@H](OCc2cc(C(F)(F)F)cc(C(F)(F)F)c2)[C@H]1c1ccccc1 (racemic) | 0.77 |  |
| NC[C@@H]1CC[C@H](OCc2cc(C(F)(F)F)cc(C(F)(F)F)c2)[C@H]1c1ccccc1 (racemic) | 2.7 |  |
| COC(=O)N[C@@H]1CC[C@H](OCc2cc(C(F)(F)F)cc(C(F)(F)F)c2)[C@H]1c1ccccc1 (racemic) | 0.89 | inhibition in vivo at 1 mg/kg (Cavia porcellus): < 25% |
| FC(F)(F)c1cc(CO[C@H]2CC[C@@H](CN3CCCCC3)[C@@H]2c2ccccc2)cc(C(F)(F)F)c1 (racemic) | 5 |  |
| O=c1[nH]cc(CN[C@@H]2CC[C@H](OCc3cc(C(F)(F)F)cc(C(F)(F)F)c3)[C@H]2c2ccccc2)[nH]1 (racemic) | 5.2 |  |
| CN[C@@H]1CC[C@H](OCc2cc(C(F)(F)F)cc(C(F)(F)F)c2)[C@H]1c1ccccc1 (racemic) | 0.83 |  |
| CN(CC[C@@H]1CC[C@H](OCc2cc(C(F)(F)F)cc(C(F)(F)F)c2)[C@H]1c1ccccc1)Cc1n[nH]c(=O)[nH]1 (racemic) | 4.9 | solubility (physchem): 10 µg/mL (≈ 18.4 µM) |
| CN[C@H]1CC[C@H](OCc2cc(C(F)(F)F)cc(C(F)(F)F)c2)[C@@H]1c1ccccc1 (racemic) | 7.2 |  |
| O=c1[nH]nc(CN2CCO[C@H](OCc3cc(C(F)(F)F)cc(C(F)(F)F)c3)[C@@H]2c2ccccc2)[nH]1 |  | pKa [1]: < 3.5; solubility [4]: 3 µg/mL (≈ 5.97 µM) |
| NC(=O)CN[C@@H]1CC[C@H](OCc2cc(C(F)(F)F)cc(C(F)(F)F)c2)[C@H]1c1ccccc1 (racemic) | 1.3 | pKa [1]: 6.6; solubility (physchem): 1100 µg/mL (≈ 2390 µM); inhibition in vivo at 1 mg/kg (Cavia porcellus): 60% |
| N[C@H]1CC[C@@H](OCc2cc(C(F)(F)F)cc(C(F)(F)F)c2)[C@@H]1c1ccccc1 (relative stereo) | 100 |  |
| O=C1CC[C@@H](CN[C@@H]2CC[C@H](OCc3cc(C(F)(F)F)cc(C(F)(F)F)c3)[C@H]2c2ccccc2)N1 | 1.5 | solubility (physchem): 4000 µg/mL (≈ 7990 µM) |
| CN(Cc1n[nH]c(=O)[nH]1)C[C@@H]1CC[C@H](OCc2cc(C(F)(F)F)cc(C(F)(F)F)c2)[C@H]1c1ccccc1 (racemic) | 2 | solubility (physchem): 200 µg/mL (≈ 378 µM) |
| COC(=O)N[C@H]1CC[C@H](OCc2cc(C(F)(F)F)cc(C(F)(F)F)c2)[C@@H]1c1ccccc1 (racemic) | 5.3 |  |
| COC(=O)N(C)[C@@H]1CC[C@H](OCc2cc(C(F)(F)F)cc(C(F)(F)F)c2)[C@H]1c1ccccc1 (racemic) | 6.2 |  |
| CN(CC(N)=O)[C@H]1CC[C@H](OCc2cc(C(F)(F)F)cc(C(F)(F)F)c2)[C@@H]1c1ccccc1 (racemic) | 2.1 |  |
| NC(=O)N[C@@H]1CC[C@H](OCc2cc(C(F)(F)F)cc(C(F)(F)F)c2)[C@H]1c1ccccc1 (racemic) | 3.5 |  |
